Test results from PMC11971462, “Generation and validation of a novel multitarget small molecule in glioblastoma” (Cell Death & Disease, 2025).

Test system: GNS166 cells

C#CCN(Cc1cc2cc(OCCCN3CCCCC3)ccc2n1S(=O)(=O)c1ccccc1)C(=O)CCCCCCC(=O)NO [DDI]
A2M log2FoldChange: 2.665
ABCD2 log2FoldChange: 5.236
ABCG1 log2FoldChange: 3.412
ABLIM2 log2FoldChange: 4.711
ABLIM3 log2FoldChange: 3.639
ACSL6 log2FoldChange: 2.978
ACSM3 log2FoldChange: 2.457
ACTBL2 log2FoldChange: 4.551
ADAMTS2 log2FoldChange: 6.235
ADAMTS7 log2FoldChange: 2.1929
ADAMTS8 log2FoldChange: 3.596
ADCYAP1R1 log2FoldChange: 3.806
ADGRG4 log2FoldChange: 6.334
ADRB1 log2FoldChange: 2.369
AKR1C3 log2FoldChange: 4.683
ALDH1A1 log2FoldChange: 3.2419
ALPL log2FoldChange: 3.15
AMER2 log2FoldChange: 3.985
ANGPTL4 log2FoldChange: 2.513
ANGPTL6 log2FoldChange: 3.595
ANKRD1 log2FoldChange: 3.607
ANKRD24 log2FoldChange: 3.419
ANO5 log2FoldChange: 4.46
ANOS1 log2FoldChange: 4.667
APC2 log2FoldChange: 2.08
ARHGAP4 log2FoldChange: 2.074
ARMH1 log2FoldChange: 2.688
ARPP21 log2FoldChange: 2.016
ASPHD1 log2FoldChange: 2.1055
ASXL3 log2FoldChange: 3.768
ATCAY log2FoldChange: 4.501
ATP6V1C2 log2FoldChange: 2.012
AZIN2 log2FoldChange: 3.645
B3GALT1 log2FoldChange: 2.502
BAIAP3 log2FoldChange: 2.116
BEST1 log2FoldChange: 2.175
BMF log2FoldChange: 2.488
BMP7 log2FoldChange: 2.795
BRINP1 log2FoldChange: 6.679
C2orf81 log2FoldChange: 2.053
C5AR1 log2FoldChange: 2.131
C14orf132 log2FoldChange: 5.7
CACNA1H log2FoldChange: 4.953
CACNA2D2 log2FoldChange: 5.172
CADM3 log2FoldChange: 6.675
CALHM5 log2FoldChange: 2.928
CALY log2FoldChange: 5.625
CAMK2N2 log2FoldChange: 2.028
CARMIL2 log2FoldChange: 3.403
CARMIL3 log2FoldChange: 3.869
CCDC39 log2FoldChange: 4.487
CCDC92B log2FoldChange: 5.8
CCDC110 log2FoldChange: 2.494
CCDC148 log2FoldChange: 2.41
CCDC160 log2FoldChange: 2.467
CCDC181 log2FoldChange: 2.436
CCDC183 log2FoldChange: 2.45
CCM2L log2FoldChange: 4.732
CD22 log2FoldChange: 2.4858
CDYL2 log2FoldChange: 2.827
CECR2 log2FoldChange: 4.106
CELF5 log2FoldChange: 4.62
CFAP43 log2FoldChange: 2.577
CFAP54 log2FoldChange: 2.381
CFAP57 log2FoldChange: 3.908
CFAP298-TCP10L log2FoldChange: 2.613
CHGB log2FoldChange: 2.484
CHRD log2FoldChange: 2.364
CHST9 log2FoldChange: 3.903
CKMT1A log2FoldChange: 5.211
CLEC19A log2FoldChange: 2.635
CLIC5 log2FoldChange: 2.4345
COL2A1 log2FoldChange: 3.044
COL6A3 log2FoldChange: 4.472
CPED1 log2FoldChange: 2.118
CPLX1 log2FoldChange: 3.672
CPM log2FoldChange: 2.471
CRABP1 log2FoldChange: 4.4
CRTAC1 log2FoldChange: 4.102
CRYAB log2FoldChange: 3.702
CSMD2 log2FoldChange: 3.997
CSRNP3 log2FoldChange: 2.27
CTSH log2FoldChange: 2.081
CYP1A1 log2FoldChange: 3.053
CYP2S1 log2FoldChange: 2.662
CYP4F22 log2FoldChange: 6.411
DAPL1 log2FoldChange: 2.233
DCAF8L1 log2FoldChange: 5.4838
DDIT4L log2FoldChange: 2.364
DENND6B log2FoldChange: 2.257
DGKI log2FoldChange: 3.175
DHH log2FoldChange: 3.784
DLL3 log2FoldChange: 3.7947
DLX3 log2FoldChange: 2.236
DMBX1 log2FoldChange: 2.746
DNAAF1 log2FoldChange: 4.023
DNAH7 log2FoldChange: 3.23
DNAI1 log2FoldChange: 4.453
DNAI3 log2FoldChange: 2.636
DNAI7 log2FoldChange: 4.138
DOCK5 log2FoldChange: 2.9913
DTX1 log2FoldChange: 4.306
DUSP9 log2FoldChange: 2.25
EAF2 log2FoldChange: 2.082
EDA log2FoldChange: 4.8176
EFCAB12 log2FoldChange: 2.979
EGFL7 log2FoldChange: 2.196
EGLN3 log2FoldChange: 2.576
EID3 log2FoldChange: 2.42
ELAPOR2 log2FoldChange: 4.1571
ELOVL3 log2FoldChange: 3.984
EPHB6 log2FoldChange: 4.725
ERBB3 log2FoldChange: 2.384
ERVV-1 log2FoldChange: 6.315
FAIM2 log2FoldChange: 2.169
FAM43B log2FoldChange: 2.485
FAM71F1 log2FoldChange: 2.207
FAM78A log2FoldChange: 2.232
FAM107A log2FoldChange: 2.013
FAM131C log2FoldChange: 2.228
FANK1 log2FoldChange: 2.642
FAT2 log2FoldChange: 2.483
FBLN2 log2FoldChange: 5.485
FBLN5 log2FoldChange: 4.419
FBXO2 log2FoldChange: 2.58
FGF13 log2FoldChange: 3.276
FIBIN log2FoldChange: 2.106
FKBP1B log2FoldChange: 2.251
FOLR1 log2FoldChange: 2.626
FOXO6 log2FoldChange: 2.278
FRK log2FoldChange: 2.849
FSTL5 log2FoldChange: 5.479
FXYD6 log2FoldChange: 4.385
GABRB1 log2FoldChange: 3.597
GABRD log2FoldChange: 5.7221
GABRQ log2FoldChange: 7.349
GALNT6 log2FoldChange: 2.317
GDPD1 log2FoldChange: 2.176
GFY log2FoldChange: 3.527
GLB1L2 log2FoldChange: 6.148
GNG4 log2FoldChange: 2.04
GNG8 log2FoldChange: 3.102
GPC3 log2FoldChange: 3.37
GPC5 log2FoldChange: 2.595
GRB14 log2FoldChange: 2.215
GRHL3 log2FoldChange: 2.762
GRIA2 log2FoldChange: 4.688
GRIA4 log2FoldChange: 3.3
GRID2IP log2FoldChange: 3.773
GRIN3B log2FoldChange: 5.631
GSTO2 log2FoldChange: 2.18
HAND1 log2FoldChange: 4.809
HAPLN3 log2FoldChange: 2.0919
HBA1 log2FoldChange: 5.471
HBA2 log2FoldChange: 4.292
HEPHL1 log2FoldChange: 2.403
HGF log2FoldChange: 3.276
HHIP log2FoldChange: 3.119
HIF3A log2FoldChange: 5.349
HLA-DMB log2FoldChange: 2.342
HMCN2 log2FoldChange: 3.444
HOATZ log2FoldChange: 4.467
HOXA13 log2FoldChange: 2.2385
HPCAL4 log2FoldChange: 5.769
HSPA2 log2FoldChange: 3.557
HTR6 log2FoldChange: 3.33
ID4 log2FoldChange: 2.033
IER3 log2FoldChange: 2.061
IFITM10 log2FoldChange: 2.3164
IGFBP3 log2FoldChange: 2.818
IGFN1 log2FoldChange: 4.535
IGLON5 log2FoldChange: 3.821
IGSF1 log2FoldChange: 6.9503
IGSF9 log2FoldChange: 5.356
IGSF11 log2FoldChange: 3.128
IL1A log2FoldChange: 2.307
IL18R1 log2FoldChange: 2.881
IL21R log2FoldChange: 5.107
INSRR log2FoldChange: 3.812
INSYN1 log2FoldChange: 2.89
ITGAX log2FoldChange: 6.404
ITIH5 log2FoldChange: 7.18
JAK3 log2FoldChange: 3.281
JAKMIP1 log2FoldChange: 6.861
JPH3 log2FoldChange: 7.177
JPH4 log2FoldChange: 6.374
KCNH7 log2FoldChange: 3.228
KCNK3 log2FoldChange: 2.911
KCNN1 log2FoldChange: 6.119
KCNN3 log2FoldChange: 2.959
KCNQ2 log2FoldChange: 7.079
KCNQ3 log2FoldChange: 6.35
KCNU1 log2FoldChange: 3.505
KDR log2FoldChange: 2.185
KIAA1755 log2FoldChange: 3.46
KIF26A log2FoldChange: 3.322
KIRREL2 log2FoldChange: 3.351
KISS1R log2FoldChange: 5.189
KLRG1 log2FoldChange: 3.015
KNDC1 log2FoldChange: 5.452
KRT81 log2FoldChange: 2.561
LAMA1 log2FoldChange: 4.927
LANCL3 log2FoldChange: 2.567
LGI3 log2FoldChange: 4.02
LGI4 log2FoldChange: 3.612
LHX6 log2FoldChange: 2.492
LINGO1 log2FoldChange: 3.184
LMX1B log2FoldChange: 4.789
LRAT log2FoldChange: 2.695
LRRC4B log2FoldChange: 6.224
LRRC63 log2FoldChange: 3.034
LTK log2FoldChange: 2.536
LUM log2FoldChange: 2.768
MACC1 log2FoldChange: 2.159
MAGEC1 log2FoldChange: 3.487
MAK log2FoldChange: 2.409
MDFI log2FoldChange: 3.485
MEFV log2FoldChange: 4.614
MEGF11 log2FoldChange: 3.91
MGAT3 log2FoldChange: 4.144
MME log2FoldChange: 2.372
MORN3 log2FoldChange: 2.131
MPP7 log2FoldChange: 2.694
MRO log2FoldChange: 3.525
MT3 log2FoldChange: 2.775
MYEOV log2FoldChange: 3.238
MYO1D log2FoldChange: 2.853
MYOZ2 log2FoldChange: 6.009
NALF2 log2FoldChange: 4.418
NAT16 log2FoldChange: 3.0286
NCALD log2FoldChange: 2.788
NCAN log2FoldChange: 5.945
NCCRP1 log2FoldChange: 5.22
NECTIN4 log2FoldChange: 2.229
NFASC log2FoldChange: 2.355
NFATC4 log2FoldChange: 2.3144
NFIA log2FoldChange: 2.067
NKD1 log2FoldChange: 3.284
NKX1-2 log2FoldChange: 2.899
NLRP1 log2FoldChange: 3.5059
NME5 log2FoldChange: 2.6336
NPY2R log2FoldChange: 3.759
NSG1 log2FoldChange: 5.809
NTNG2 log2FoldChange: 2.905
NXPH3 log2FoldChange: 2.7857
OLFM2 log2FoldChange: 3.458
OLIG2 log2FoldChange: 6.361
OTOGL log2FoldChange: 4.502
PALM3 log2FoldChange: 2.0048
